According to patent US6706740B2, “Fungicidal heterocyclic aromatic amides and their compositions, methods of use and preparation” (Dow AgroSciences LLC, priority 1999, dated 2004):

Assays:
[1] = system: Leptosphaeria nodorum—LEPTNO; test: Glume Blotch of Wheat, in vivo whole plant, 24 Hour Protectant; settings: Leptosphaeria; 100 ppm spray, wheat, 24 hour protectant, % control of fungal infection vs untreated plants; read-out: LEPTNO in vivo 1 Day Protectant
Erysiphe graminis—ERYSGT = test: Powdery Mildew of Wheat, in vivo whole plant, 24 Hour Protectant; settings: Erysiphe; 100 ppm spray, wheat, 24 hour protectant, % control of fungal infection vs untreated plants; read-out: ERYSGT in vivo 1 Day Protectant
[2] = system: Magnaporthe grisea (Pyricularia oryzae—PYRIOR); test: microbe, parasite or virus in culture; type: cell-based; settings: Pyricularia oryzae, read-out: PYRIOR in vitro Growth Inhibition
[3] = system: Rhizoctonia solani (RHIZSO); test: microbe, parasite or virus in culture; type: cell-based; settings: Rhizoctonia solani, read-out: RHIZSO in vitro Growth Inhibition
[4] = system: Phytophthora infestans (PHYTIN); test: microbe, parasite or virus in culture; type: cell-based; settings: Phytophthora infestans, read-out: PHYTIN in vitro Growth Inhibition
[5] = system: Stagonospora nodorum (Leptosphaeria nodorum—LEPTNO); test: In vitro fungal growth inhibition, Stagonospora nodorum (LEPTNO); type: cell-based; settings: Leptosphaeria; 25 ppm in growth medium; read-out: LEPTNO in vitro Growth Inhibition
Septoria tritici—SEPTTR = test: Leaf Blotch of Wheat, in vivo whole plant, 24 Hour Protectant; settings: 100 ppm spray, wheat, 24 hour protectant, % control of fungal infection vs untreated plants
[6] = system: Phytophthora infestans—PHYTIN; test: whole plant or invertebrate; type: in vivo; settings: Phytophthora, in Solanum lycopersicum, 24 h, read-out: PHYTIN in vivo 1 Day Protectant
[7] = system: Mycosphaerella graminicola (Septoria tritici—SEPTTR); test: In vitro fungal growth inhibition, Mycosphaerella graminicola (SEPTTR); type: cell-based; settings: Zymoseptoria tritici; 25 ppm in growth medium; read-out: SEPTTR in vitro Growth Inhibition
Ustilago maydis (USTIMA) = test: microbe, parasite or virus in culture; type: cell-based; settings: Mycosarcoma maydis, read-out: USTIMA in vitro Growth Inhibition
[8] = system: Puccinia recondita—PUCCRT; test: Brown Rust of Wheat, in vivo whole plant, 24 Hour Protectant; settings: Puccinia; 100 ppm spray, wheat, 24 hour protectant, % control of fungal infection vs untreated plants; read-out: PUCCRT in vivo 1 Day Protectant

Compound | pest or weed control at 100 ppm [1] [%] | pest or weed control at 100 ppm (Erysiphe graminis—ERYSGT) [%] | melting point [°C] | inhibition at 25 ppm [2] [%] | inhibition at 25 ppm [3] [%] | inhibition at 25 ppm [4] [%] | inhibition at 25 ppm [5] [%] | SEPTTR in vivo 1 Day Protectant (Septoria tritici—SEPTTR) | pest or weed control at 100 ppm [6] [%] | inhibition at 25 ppm [7] [%] | inhibition at 25 ppm (Ustilago maydis (USTIMA)) [%] | pest or weed control at 100 ppm [8] [%] | pest or weed control at 100 ppm (Septoria tritici—SEPTTR; Zymoseptoria tritici, 24 h, read-out: SEPTTR in vivo 1 Day Protectant) [%]
COCCC(=O)Oc1c(OC)ccnc1C(=O)Nc1cccc(NC(=O)c2ccc(C(F)(F)F)cc2)c1 [Compound 718] | 25 to 74 | < 25 | 115 to 118 | < 80 | < 80 | < 80 | < 80 | + + | < 25 | < 80 | < 80 | 25 to 74 | –
COc1ccnc(C(=O)Nc2ccc(NC(=O)c3cccc(C(F)(F)F)c3)cc2)c1OC(C)=O [Compound 719] | 25 to 74 | < 25 | 124 to 126 | < 80 | < 80 | < 80 | < 80 | – | < 25 | < 80 | < 80 | < 25 | < 25
